Results published in US20210161868A1, “ANTI-INFLAMMATORY THERAPY IN ARRHYTHMOGENIC CARDIOMYOPATHY (ACM)” (Beth Israel Deaconess Medical Center, Inc., priority 2018, published 2021).
Entries after “also recorded” stand apart in the source; their conditions may differ.

Legend:
Assay type in all cases: cell-based
[1] = tested on: neonatal rat ventricular myocytes (NRVMs) expressing JUP^2157del2; experiment: ACM features (protein distribution, immunofluorescence) in NRVMs expressing mutant plakoglobin; design: pattern of distribution of plakoglobin, Cx43 and GSK3β: dose or concentration left out as unconfirmed
From the text: All animal studies were in full compliance with policies of Beth Israel Deaconess Medical Center, Johns Hopkins School of Medicine and St. George's University of London. They also conformed to the Guide for the Care and Use of Laboratory Animals from the National Institutes of Health (NIH publication no. 85-23, revised 1996). In vitro studies involved transfection of cultured neonatal rat ventricular myocytes with a mutant allele of the desmosomal protein plakoglobin (2157de12) as previously described.^15 In vivo studies were performed in mice with homozygous knock-in of a mutant form of Dsg2, the gene encoding the desmosomal cadherin desmoglein-2 (Dsg2^mut/mut mice) as previously described.^6 This mutation entails loss of exons 4 and 5 which causes a frameshift and premature termination of translation.
Primary cultures were prepared from disaggregated ventricles of 1-day-old Wistar rat pups (Charles River) as previously described.^15 Cell suspensions were pre-plated to reduce fibroblast content, placed in collagen-coated chamber slides at a density of 2.4×10^5 cells/cm^2, and grown for 4 days at 37° C. in M199 medium (GIBCO) (supplemented with penicillin, 20 U/mL; streptomycin, 20 μg/mL; 10% neonatal calf serum and 0.1 mM bromodeoxyuridine) in a humidified atmosphere containing 1% CO2. Epinephrine (0.01 μmol/mL) was added during the first 24 hours of culture. […]

[2] = tested on: neonatal rat ventricular myocytes (NRVMs) expressing JUP^2157del2; experiment: In vitro apoptosis assay (TUNEL) in NRVMs expressing mutant plakoglobin; conditions: transfected NRVMs, 24 hours
Description: (§1) Primary cultures were prepared from disaggregated ventricles of 1-day-old Wistar rat pups (Charles River) as previously described.^15 Cell suspensions were pre-plated to reduce fibroblast content, placed in collagen-coated chamber slides at a density of 2.4×10^5 cells/cm^2, and grown for 4 days at 37° C. in M199 medium (GIBCO) (supplemented with penicillin, 20 U/mL; streptomycin, 20 μg/mL; 10% neonatal calf serum and 0.1 mM bromodeoxyuridine) in a humidified atmosphere containing 1% CO2. Epinephrine (0.01 μmol/mL) was added during the first 24 hours of culture. At 24 hours post-seeding, cultures were transfected with an adenoviral construct expressing plakoglobin (JUP) with the 2157del2 mutation, as previously reported.^15 At 24 hours post-transfection, cultures were treated with Bay11-7082 (Sigma, […]) for an additional 24 hours. Transfected cultures treated with vehicle only (DMSO) and non-transfected cultures were used for control purposes.
Terminal deoxynucleotidyl transferase dUTP nick end labeling (TUNEL) was performed on neonatal rat myocyte cultures according to the manufacturer's protocol (Millipore, S7110). The number of TUNEL-positive nuclei was counted in 5 randomly selected high-power fields in each culture well and expressed as a per cent of total nuclei visualized with DAPI.

[3] = tested on: neonatal rat ventricular myocytes (NRVMs) expressing JUP^2157del2; experiment: In vitro cytokine assay of NRVM culture media; conditions: Bay11-7082 5 μM, 24 hours
Description: as §1, with “Transfected cultures treated with vehicle only (DMSO) and non-transfected cultures were used for control purposes.” left out
Culture media from cells expressing 2157del2 plakoglobin in the presence or absence of Bay11-7082 (5 μM, 24 hours) were collected after 96 hours in culture, mixed with a cocktail of biotinylated detection antibodies, and incubated with nitrocellulose membranes spotted in duplicate with control and capture antibodies (R&D Systems). […] The cytokine array specifically detected rat cytokines whereas cells were grown in media containing neonatal bovine serum. […]

Cc1ccc(S(=O)(=O)/C=C/C#N)cc1 [Bay 11-7082]
in vitro readouts of the ACM phenotype (plakoglobin, Cx43, apoptosis, cytokines) ([1]; NRVMs expressing mutant plakoglobin): blocked; also recorded: completely reversed
pattern of distribution of plakoglobin, Cx43 and GSK3β ([1]; transfected NRVMs, Bay11-7082, 24 hours): normalized; also recorded: indistinguishable from that seen in control
myocyte apoptosis, TUNEL labeling [2]: normalization; also recorded: returned to control levels
accumulation of cytokines and chemoattractants in culture media [3]: reduces; also recorded: greatly reduced
